Like-named read-outs stand apart in the source and are kept apart here.
Legend:
[1] = target: T1, folate receptor α (FRα) (Homo sapiens, UniProt P15328); experiment: 3H-folic acid competition radioligand assay on […] cells transfected with FRα; type: cell-based
T1 construct: gene FOLR1

[2] = target: T2, folate receptor β (FRβ) (Homo sapiens, UniProt P14207); experiment: 3H-folic acid competition radioligand assay on […] cells transfected with FRβ; type: cell-based
T2 construct: gene FOLR2

[3] = target: T2, folate receptor β (FRβ); experiment: as above

T2 sequence (P14207 17-230): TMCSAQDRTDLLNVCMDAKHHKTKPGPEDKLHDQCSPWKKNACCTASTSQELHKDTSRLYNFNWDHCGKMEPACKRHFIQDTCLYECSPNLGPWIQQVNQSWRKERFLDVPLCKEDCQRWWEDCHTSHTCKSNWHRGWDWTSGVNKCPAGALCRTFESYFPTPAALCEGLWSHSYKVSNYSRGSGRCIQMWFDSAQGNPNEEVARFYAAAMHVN
T1 sequence (P15328 25-234): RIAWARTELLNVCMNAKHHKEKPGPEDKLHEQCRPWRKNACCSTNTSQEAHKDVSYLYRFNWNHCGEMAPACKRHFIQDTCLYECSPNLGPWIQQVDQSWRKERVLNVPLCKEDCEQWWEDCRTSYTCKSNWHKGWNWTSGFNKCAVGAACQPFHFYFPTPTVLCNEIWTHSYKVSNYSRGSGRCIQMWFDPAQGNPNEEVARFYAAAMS

Row | Kd [1] | Kd [2] | Compound | Kd [3]
1 | 61.7 nM | 487 nM | CC1(C)C(=CC=C2CCCC(C=CC3=[N+](CCCCS(=O)(=O)[O-])c4ccc(S(=O)(=O)O)cc4C3(C)C)=C2Oc2ccc(C[C@H](NC(=O)c3ccc(CCc4c[nH]c5[nH]c(N)nc(=O)c45)cc3)C(=O)O)cc2)N(CCCCS(=O)(=O)O)c2ccc(S(=O)(=O)O)cc21 [NY-07] | 
2 |  |  | Nc1nc(=O)c2nc(CNc3ccc(C(=O)N[C@@H](CCC(=O)O)C(=O)O)cc3)cnc2[nH]1 [folate, folic acid] | Assessment of K d of folate, OTL38, and NY-07 to FRβ.

Source: publication PMC13014312, “Fluorescence Discrimination of Cancer from Inflammation by Selective Targeting Folate Receptor α” (Chemical & Biomedical Imaging, 2025)
